Some test systems named below: DMS-114; DMS-273; XF498; RXF 631; KM-20L2; LXFL 529; HOP-18; SNB-78; DLD-1.
Assay in all cases: NCI-60 cell line screen, 48 h

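Cells were grown in 96-well plates and exposed to each compound for 48 hours at five concentrations; endpoints were interpolated linearly between bracketing concentrations, or set to the highest concentration if not reached. At the GI50, growth is halved.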 Calls of active or inactive are those of the source. Rule as the data show it: active = GI50 up to about 1.1 µM and inactive = higher.

The values that follow come from ChEMBL document CHEMBL1201862, “PubChem BioAssay data set” (2004).

Take `C=CCN(N=O)C(=O)NCCCC(NC(C)=O)C(=O)NCc1ccccc1` (stereo not given): the GI50 in the assay on DMS-114, in the assay with DMS-273, in the assay with XF498, in the assay on RXF 631, with KM-20L2 and in the assay on LXFL 529 was > 100 µM (inactive) in each case. For the same molecule, the GI50 with HOP-18 was 10.9 µM (inactive).

Turning to `CN(C)c1ccc(/C=C2\C[N+](C)(C)C/C(=C\c3ccc(N(C)C)cc3)C2=O)cc1`, the GI50 in the assay on DMS-114 was 7.53 µM (inactive); in the assay on SNB-78 it was > 49.8 µM (inactive); in the assay with DLD-1, 35.9 µM (inactive); in the assay on DMS-273, 5.25 µM (inactive); in the assay on XF498, > 10 µM (inactive); with KM-20L2, 12.9 µM (inactive). For the same molecule, the GI50 in the assay on LXFL 529 is 7.55 µM (inactive); with HOP-18 it was 37.1 µM (inactive).

As to `OCCN(CCO)c1cccc(N(CCO)CCO)n1`, the GI50 with DMS-114 was > 100 µM (inactive); with SNB-78, > 100 µM (inactive); with DLD-1, > 100 µM (inactive); in the assay on DMS-273, > 100 µM (inactive); in the assay on XF498, 27.7 µM (inactive); with RXF 631, > 100 µM (inactive). Besides, the GI50 with KM-20L2 and with LXFL 529 was > 100 µM (inactive) throughout.

As for `CCOC(=O)c1cc2c(cn1)[nH]c1cccc(N)c12`, the GI50 in the assay on DMS-114, in the assay on SNB-78, in the assay on DLD-1, with DMS-273, in the assay on XF498 and with LXFL 529 was > 100 µM (inactive) in each case. The GI50 with HOP-18 was > 100 µM (inactive).

As to `Cc1ccc(NC(=O)CCC(=O)C2CC(=O)CC/C2=N\NC(=O)c2cc3ccccc3cc2O)cc1C` (stereo not given), the GI50 with DMS-114 is 19.8 µM (inactive); with SNB-78, 28.6 µM (inactive); in the assay with DLD-1 it was 30.5 µM (inactive); with DMS-273, 13.2 µM (inactive); in the assay on XF498, 31.1 µM (inactive); with RXF 631, 32.6 µM (inactive). Further, the GI50 with KM-20L2 was 27.5 µM (inactive); in the assay with LXFL 529 it was 21.4 µM (inactive); with HOP-18, 21.8 µM (inactive).

Take `CCCCN(CCCC)CC(C(=O)Nc1ccccc1)/C(C)=N\NC(=O)c1ccncc1` (stereo not given): the GI50 was 63 µM (inactive) with DMS-114; > 100 µM (inactive) in the assay on SNB-78; > 100 µM (inactive) with DLD-1; > 100 µM (inactive) with DMS-273; > 100 µM (inactive) in the assay on XF498; > 100 µM (inactive) with KM-20L2.

As for `Nc1ccn(CCOC(c2ccccc2)P(=O)(O)O)c(=O)n1` (stereo not given), the GI50 in the assay on DMS-114, in the assay on SNB-78, in the assay with DLD-1, in the assay on DMS-273, with XF498 and in the assay with KM-20L2 was > 100 µM (inactive) in each case. The GI50 in the assay on LXFL 529 was > 100 µM (inactive).

For `O=C(O)C12C=CC(C1)c1ccccc12` (stereo not given), the GI50 in the assay on DMS-114, in the assay with DLD-1, in the assay with DMS-273, in the assay on KM-20L2, in the assay with LXFL 529 and in the assay with HOP-18 was > 100 µM (inactive) in each case.

For the molecule `CC(C)(C)C(=O)Cc1cc2c(cc1C(=O)O)S(=O)(=O)NC(C(C)(C)C)=C2`, the GI50 in the assay with DMS-114, in the assay on SNB-78, with DLD-1 and in the assay on LXFL 529 was > 100 µM (inactive) throughout.

Consider `NS(=O)(=O)c1cc2c(cc1Cl)NC(C(=O)c1cc(=O)c3ccc(O)cc3o1)=NS2(=O)=O`, for which the GI50 in the assay with DMS-114, in the assay with SNB-78, in the assay on DLD-1, in the assay on DMS-273, in the assay on XF498 and in the assay on KM-20L2 was > 100 µM (inactive) throughout. For the same molecule, in the assay with HOP-18, the GI50 was > 100 µM (inactive).

As to `COc1ccc(Cc2nccc3cc(OC)c(OC)cc23)cc1`, the GI50 with DMS-114 is 29.7 µM (inactive); with SNB-78, > 100 µM (inactive); in the assay on DLD-1 it was > 100 µM (inactive); with XF498, 23.8 µM (inactive); in the assay on KM-20L2, > 100 µM (inactive); in the assay on LXFL 529, 28 µM (inactive).

As to `C=CCNC(=O)N(CCC)CCCCC(NC(C)=O)C(=O)NCc1ccccc1` (stereo not given), the GI50 in the assay with DMS-114 was > 100 µM (inactive); with DMS-273, > 100 µM (inactive); with XF498, > 100 µM (inactive); in the assay with KM-20L2 it was > 100 µM (inactive); in the assay with LXFL 529, > 100 µM (inactive); with HOP-18, 72.1 µM (inactive).

In the case of `CC1(C)N=C(Oc2ccccc2)n2nccc2N1`, the GI50 in the assay on DMS-114 was > 100 µM (inactive); with DLD-1, > 100 µM (inactive); in the assay on DMS-273, 66.7 µM (inactive); in the assay on XF498 it was > 100 µM (inactive); in the assay with KM-20L2, > 100 µM (inactive); in the assay with LXFL 529 it was > 100 µM (inactive). For the same molecule, the GI50 in the assay on HOP-18 is > 100 µM (inactive).

Take `NC(=O)c1csc(C2OC(COP(=O)(O)CP(=O)(O)OCC3OC(n4cnc5c(N)ncnc54)C(O)C3O)C(O)C2O)n1` (stereo not given): the GI50 in the assay on DMS-114 was > 100 µM (inactive); in the assay with SNB-78, > 100 µM (inactive); in the assay with DLD-1, > 100 µM (inactive); in the assay with DMS-273, 85.5 µM (inactive); in the assay on XF498 it was > 100 µM (inactive); with RXF 631 it was > 100 µM (inactive). Also, the GI50 with KM-20L2, in the assay with LXFL 529 and in the assay with HOP-18 was > 100 µM (inactive) in each case.

Consider `CC(=O)N/C(=C\c1ccc(Cc2nc3c([nH]2)C(=O)c2ccccc2C3=O)cc1)c1nc2c([nH]1)C(=O)c1ccccc1C2=O`, for which the GI50 in the assay on DMS-114, in the assay on DLD-1, in the assay with KM-20L2 and with LXFL 529 was > 100 µM (inactive) in each case.

Take `C=C1C(=O)C23C(O)CC4C(C)(C)CCC(O)C4(C)C2CC(OC(C)=O)C1[C@H]3O` (stereo not given in full): the GI50 with SNB-78 is 0.925 µM (active); in the assay with DLD-1 it was 1.69 µM (inactive); in the assay on DMS-273 it was 1.65 µM (inactive); with XF498, 1.91 µM (inactive); with RXF 631, 4.8 µM (inactive); in the assay on KM-20L2, 3.15 µM (inactive). For the same molecule, the GI50 with LXFL 529 is 1.07 µM (active); in the assay with HOP-18, 2.27 µM (inactive).

Consider `COC(=O)c1cc(C)n(NC(=O)OC(C)(C)C)c1C`, for which the GI50 in the assay with DMS-114 was > 100 µM (inactive); in the assay on SNB-78, 95.1 µM (inactive); with DLD-1, > 100 µM (inactive); with DMS-273, > 100 µM (inactive); with KM-20L2 it was > 100 µM (inactive); in the assay with LXFL 529, > 100 µM (inactive).

In the case of `COC1CC(OC)C2OC(c3ccccc3)OCC2O1` (stereo not given), the GI50 in the assay with SNB-78, in the assay with DLD-1, with KM-20L2, in the assay with LXFL 529 and in the assay with HOP-18 was > 100 µM (inactive) in each case.

`CCCCCCCCCCCCCCCC[N+](C)(C)Cc1ccc(C[N+](C)(C)CCCCCCCCCCCCCCCC)cc1`: the GI50 in the assay with DMS-114 was 1.85 µM (inactive); in the assay with SNB-78, 2.73 µM (inactive); in the assay with DLD-1, 3.48 µM (inactive); with DMS-273 it was 1.98 µM (inactive); with RXF 631, 2.19 µM (inactive); in the assay with KM-20L2, 3.62 µM (inactive). In addition, the values for the GI50 in the assay on LXFL 529 and in the assay on HOP-18 were 8.09 µM (inactive) and 1.67 µM (inactive), respectively.

For `Nc1n[nH]c(N)n1` [GUANAZOLE], the GI50 in the assay with DMS-114 was 1800 µM (inactive); in the assay on SNB-78 it was 5250 µM (inactive); in the assay on DLD-1, 9840 µM (inactive); in the assay on DMS-273, 914 µM (inactive); in the assay with XF498, 237 µM (inactive); in the assay with KM-20L2 it was 7890 µM (inactive). Further, in the assay with HOP-18, the GI50 is 5610 µM (inactive).
